This data set concerns CCRIS mutagenicity, Ames/micronucleus/aberration tests. Briefly: CCRIS mutagenicity studies.
Setting [1] is: Test System: AMES SALMONELLA TYPHIMURIUM, Strain/Indicator: TA98, Metabolic Activation: NONE, Method: STANDARD PLATE.
Setting [2] is: Test System: AMES SALMONELLA TYPHIMURIUM, Strain/Indicator: TA100, Metabolic Activation: NONE, Method: STANDARD PLATE.
[3] abbreviates: Test System: AMES SALMONELLA TYPHIMURIUM, Strain/Indicator: TA1535, Metabolic Activation: NONE, Method: STANDARD PLATE.
[4] abbreviates: Test System: AMES SALMONELLA TYPHIMURIUM, Strain/Indicator: TA1537, Metabolic Activation: NONE, Method: STANDARD PLATE.

Among the data in PubChem BioAssay AID1259407 (Chemical Carcinogenesis Research Information System (CCRIS), 2018) are mutagenic call values, retold here.

Activity calls are given as the source filed them. How the calls were made is not given here.

For `CC(O)C#N` (stereo unspecified), the mutagenic call is, setting by setting: (Test System: AMES SALMONELLA TYPHIMURIUM, Strain/Indicator: TA97, Metabolic Activation: HAMSTER, LIVER, S-9, AROCLOR 1254 (10%), Method: PREINCUBATION) “inactive; negative”; (Test System: AMES SALMONELLA TYPHIMURIUM, Strain/Indicator: TA97, Metabolic Activation: HAMSTER, LIVER, S-9, AROCLOR 1254 (30%), Method: PREINCUBATION) “inactive; negative”; (Test System: AMES SALMONELLA TYPHIMURIUM, Strain/Indicator: TA97, Metabolic Activation: NONE, Method: PREINCUBATION) “inactive; negative”; (Test System: AMES SALMONELLA TYPHIMURIUM, Strain/Indicator: TA97, Metabolic Activation: RAT, LIVER, S-9, AROCLOR 1254 (5%), Method: PREINCUBATION) “inactive; negative”; (Test System: AMES SALMONELLA TYPHIMURIUM, Strain/Indicator: TA97, Metabolic Activation: RAT, LIVER, S-9, AROCLOR 1254 (10%), Method: PREINCUBATION) “inactive; negative”; (Test System: AMES SALMONELLA TYPHIMURIUM, Strain/Indicator: TA97, Metabolic Activation: RAT, LIVER, S-9, AROCLOR 1254 (30%), Method: PREINCUBATION) “inactive; negative”. Besides, the mutagenic call was “inactive; negative” (Test System: AMES SALMONELLA TYPHIMURIUM, Strain/Indicator: TA98, Metabolic Activation: HAMSTER, LIVER, S-9, AROCLOR 1254 (10%), Method: PREINCUBATION); “inactive; negative” (Test System: AMES SALMONELLA TYPHIMURIUM, Strain/Indicator: TA98, Metabolic Activation: HAMSTER, LIVER, S-9, AROCLOR 1254 (30%), Method: PREINCUBATION); “inactive; negative” (Test System: AMES SALMONELLA TYPHIMURIUM, Strain/Indicator: TA98, Metabolic Activation: NONE, Method: PREINCUBATION); “inactive; negative” (Test System: AMES SALMONELLA TYPHIMURIUM, Strain/Indicator: TA98, Metabolic Activation: RAT, LIVER, S-9, AROCLOR 1254 (10%), Method: PREINCUBATION); “inactive; negative” (Test System: AMES SALMONELLA TYPHIMURIUM, Strain/Indicator: TA98, Metabolic Activation: RAT, LIVER, S-9, AROCLOR 1254 (30%), Method: PREINCUBATION); “inactive; negative” (Test System: AMES SALMONELLA TYPHIMURIUM, Strain/Indicator: TA100, Metabolic Activation: HAMSTER, LIVER, S-9, AROCLOR 1254 (10%), Method: PREINCUBATION). The mutagenic call is “inactive; negative” (Test System: AMES SALMONELLA TYPHIMURIUM, Strain/Indicator: TA100, Metabolic Activation: HAMSTER, LIVER, S-9, AROCLOR 1254 (30%), Method: PREINCUBATION); “inactive; negative” (Test System: AMES SALMONELLA TYPHIMURIUM, Strain/Indicator: TA100, Metabolic Activation: NONE, Method: PREINCUBATION); “inactive; negative” (Test System: AMES SALMONELLA TYPHIMURIUM, Strain/Indicator: TA100, Metabolic Activation: RAT, LIVER, S-9, AROCLOR 1254 (5 OR 30%), Method: PREINCUBATION); “inactive; negative” (Test System: AMES SALMONELLA TYPHIMURIUM, Strain/Indicator: TA100, Metabolic Activation: RAT, LIVER, S-9, AROCLOR 1254 (10%), Method: PREINCUBATION); “inactive; negative” (Test System: AMES SALMONELLA TYPHIMURIUM, Strain/Indicator: TA1535, Metabolic Activation: HAMSTER, LIVER, S-9, AROCLOR 1254 (10%), Method: PREINCUBATION); “inactive; negative” (Test System: AMES SALMONELLA TYPHIMURIUM, Strain/Indicator: TA1535, Metabolic Activation: HAMSTER, LIVER, S-9, AROCLOR 1254 (30%), Method: PREINCUBATION). The mutagenic call by setting is: (Test System: AMES SALMONELLA TYPHIMURIUM, Strain/Indicator: TA1535, Metabolic Activation: NONE, Method: PREINCUBATION) “inactive; negative”; (Test System: AMES SALMONELLA TYPHIMURIUM, Strain/Indicator: TA1535, Metabolic Activation: RAT, LIVER, S-9, AROCLOR 1254 (10%), Method: PREINCUBATION) “inactive; negative”; (Test System: AMES SALMONELLA TYPHIMURIUM, Strain/Indicator: TA1535, Metabolic Activation: RAT, LIVER, S-9, AROCLOR 1254 (30%), Method: PREINCUBATION) “inactive; negative”; (Test System: AMES SALMONELLA TYPHIMURIUM, Strain/Indicator: TA1537, Metabolic Activation: HAMSTER, LIVER, S-9, AROCLOR 1254 (30%), Method: PREINCUBATION) “inactive; negative”; (Test System: AMES SALMONELLA TYPHIMURIUM, Strain/Indicator: TA1537, Metabolic Activation: RAT, LIVER, S-9, AROCLOR 1254 (30%), Method: PREINCUBATION) “inactive; negative”.
Take `Nc1c(O)ccc2ccccc12`: for the setting “Test System: AMES SALMONELLA TYPHIMURIUM, Strain/Indicator: TA100, Metabolic Activation: RAT, LIVER, S-9, AROCLOR 1254, Method: PREINCUBATION”, the mutagenic call is “inactive; negative”.
Turning to `Nc1snc2ccc(Cl)cc12`, the mutagenic call reads like this: under setting [1], “inactive; negative”; (Test System: AMES SALMONELLA TYPHIMURIUM, Strain/Indicator: TA98, Metabolic Activation: S-9, Method: STANDARD PLATE) “active; positive”; under setting [2], “inactive; negative”; (Test System: AMES SALMONELLA TYPHIMURIUM, Strain/Indicator: TA100, Metabolic Activation: S-9, Method: STANDARD PLATE) “active; positive”; under setting [3], “inactive; negative”; (Test System: AMES SALMONELLA TYPHIMURIUM, Strain/Indicator: TA1535, Metabolic Activation: S-9, Method: STANDARD PLATE) “inactive; negative”. Moreover, the mutagenic call reads like this: under setting [4], “inactive; negative”; (Test System: AMES SALMONELLA TYPHIMURIUM, Strain/Indicator: TA1537, Metabolic Activation: S-9, Method: STANDARD PLATE) “active; positive”.
Consider `N#CSCSC#N`, for which the mutagenic call (Test System: AMES SALMONELLA TYPHIMURIUM, Strain/Indicator: TA98, Metabolic Activation: HAMSTER, LIVER, S-9, AROCLOR 1254, Method: STANDARD PLATE) was “inactive; negative”; the mutagenic call under setting [1] is “inactive; negative”; the mutagenic call (Test System: AMES SALMONELLA TYPHIMURIUM, Strain/Indicator: TA98, Metabolic Activation: RAT, LIVER, S-9, AROCLOR 1254, Method: STANDARD PLATE) is “inactive; negative”; the mutagenic call (Test System: AMES SALMONELLA TYPHIMURIUM, Strain/Indicator: TA100, Metabolic Activation: HAMSTER, LIVER, S-9, AROCLOR 1254, Method: STANDARD PLATE) is “inactive; negative”; the mutagenic call under setting [2] was “inactive; negative”; the mutagenic call (Test System: AMES SALMONELLA TYPHIMURIUM, Strain/Indicator: TA100, Metabolic Activation: RAT, LIVER, S-9, AROCLOR 1254, Method: STANDARD PLATE) was “inactive; negative”. The mutagenic call is “inactive; negative” (Test System: AMES SALMONELLA TYPHIMURIUM, Strain/Indicator: TA1535, Metabolic Activation: HAMSTER, LIVER, S-9, AROCLOR 1254, Method: STANDARD PLATE); “inactive; negative” under setting [3]; “inactive; negative” (Test System: AMES SALMONELLA TYPHIMURIUM, Strain/Indicator: TA1535, Metabolic Activation: RAT, LIVER, S-9, AROCLOR 1254, Method: STANDARD PLATE); “inactive; negative” (Test System: AMES SALMONELLA TYPHIMURIUM, Strain/Indicator: TA1537, Metabolic Activation: HAMSTER, LIVER, S-9, AROCLOR 1254, Method: STANDARD PLATE); “inactive; negative” under setting [4]; “inactive; negative” (Test System: AMES SALMONELLA TYPHIMURIUM, Strain/Indicator: TA1537, Metabolic Activation: RAT, LIVER, S-9, AROCLOR 1254, Method: STANDARD PLATE). Also, the mutagenic call was “inactive; negative. reevaluation of results: negative” (Test System: MOUSE LYMPHOMA, Strain/Indicator: L5178Y (TK+/TK-), Metabolic Activation: RAT, LIVER, S-9, AROCLOR 1254, Method: SUSPENSION/PLATE) and “inactive; negative” (Test System: Mouse lymphoma, Strain/Indicator: L5178Y (tk+/tk-), Metabolic Activation: None, Method: Suspension/plate).
